{"source": "patent US20200289474A1", "about": "“METHODS OF TREATING PAIN WITH A THIAZOLINE ANTI-HYPERALGESIC” (priority 2019, published 2020)", "format_in_all_cases": "in vivo, rat", "key": {"[1]": {"test_system": "STZ-induced mechanical allodynia", "assay": "STZ-induced diabetic rats, subsequent study", "procedure": "(§1) Experiments were conducted to determine the effect of Compound 1 in streptozotocin (STZ)-induced diabetic rats. In the first experiment, after obtaining mechanical threshold baselines, STZ (50 mg/kg IV) was administered (Day −7). Two days later, blood glucose levels were measured and animals that were hyperglycemic (>250 mg/dL) continued in the study. On Day 0 the baseline for mechanical thresholds prior to dosing with test articles was established for the rats. Compound 1 (10, 30, and 100 mg/kg PO), gabapentin (100 mg/kg PO) or vehicle was then administered daily for 5 days. On Day 0 mechanical thresholds were obtained at 1, 3, and 6 h post-dose. On Day 1 mechanical thresholds were measured immediately prior to dosing and then 3 h post-dose. The same regimen was followed on Day 3.\nIn a subsequent study, the same STZ paradigm was followed. However, in addition to the 100 mg/kg Compound 1 group, two additional cohorts received the Compound 1 100 mg/kg dose split into two or three doses per day with 50 mg/kg BID and 33 mg/kg TID. In addition to the gabapentin (100 mg/kg PO) group, a separate cohort received duloxetine (30 mg/kg PO). Additionally, in this study mechanical threshold testing was implemented every day immediately prior to dosing and 2 h post-dose for 7 days."}, "[2]": {"test_system": "incision-induced hyperalgesia", "assay": "Brennan protocol, treatment paradigm (established hyperalgesia)", "settings": "morphine 3 mg/kg SC", "source_text": "Two incisional pain models were used to assess Compound 1 effects on hyperalgesia. The first model is referred to as the Brennan model in which, under anesthesia, a 1 cm longitudinal incision to the skin and underlying fascia of a rat hindpaw is made. The second is a variation but is a more invasive procedure in which the skin and muscle are spread apart using forceps which creates a longer-lasting hypersensitivity.\nUsing the Brennan protocol and a treatment paradigm in rat, Compound 1 (10 and 30 mg/kg PO), morphine (3 mg/kg SC) or vehicle were administered daily at 24 h post-incision, and again at 48 and 72 h post-incision. Mechanical thresholds were obtained at 1 h and 2 h post-dose in all cohorts on all days."}, "[3]": {"test_system": "STZ-induced mechanical allodynia", "assay": "streptozotocin (STZ)-induced diabetic rats, first experiment", "settings": "gabapentin 100 mg/kg PO daily; 1 h post-dose Day 0 and all time points thereafter", "procedure": "FIG. 14 illustrates non-limiting reversal of mechanical hypersensitivity by Compound 1 in a diabetic neuropathy model, in accordance with various embodiments. Streptozotocin (STZ) destroys insulin-producing cells and generates a diabetic phenotype in […]. Animals were dosed with STZ on day −7. By day 0 animals are hyperglycemic and hyperalgesic (day 0 BL).\nas §1"}}, "data": [{"compound": "CNCC[C@H](Oc1cccc2ccccc12)c1cccs1", "note": "[duloxetine, reference compound]", "values": [{"measurement": "reversal of allodynia", "setting": "[1]; duloxetine 30 mg/kg PO", "value": "required successive doses for appreciable activity"}]}, {"compound": "CN1CC[C@]23c4c5ccc(O)c4O[C@H]2[C@@H](O)C=C[C@H]3[C@H]1C5", "note": "[morphine]", "values": [{"measurement": "mechanical threshold", "setting": "[2]; Day 1, 1 h post-dose (baseline 35 g)", "value": 45, "unit": "g"}, {"measurement": "analgesic effect", "setting": "[2]; Day 1, 2 h post-dose", "value": "this effect waned"}, {"measurement": "hyperalgesia", "setting": "[2]; Day 2, 1 h", "value": "not hyperalgesic"}, {"measurement": "hyperalgesia", "setting": "[2]; Day 2, 2 h", "value": "mild hyperalgesia"}, {"measurement": "mechanical threshold", "setting": "[2]; Day 2 prior to dosing", "value": "< 15", "unit": "g"}]}, {"compound": "NCC1(CC(=O)O)CCCCC1", "note": "[gabapentin, reference compound]", "values": [{"measurement": "reversal of allodynia (mechanical thresholds)", "setting": "[3]", "value": "significant reversal of allodynia"}, {"measurement": "reversal of allodynia", "setting": "[1]; gabapentin 100 mg/kg PO, throughout the study", "value": "robustly reversed the allodynia"}]}]}
